Values after ≈ are worked out from the molar mass of the structure shown. Values joined by “and” are separate entries in the source; they are usually repeats but may differ in a detail not shown here. Equal entries are not always repeated. “Also recorded” adds a separate entry of the source. Where two headings read alike, the source gives them in different places.
What was measured:
[1] = test system: MERS-CoV pseudovirus; test: microbe, parasite or virus in culture; format: cell-based; conditions: Middle East respiratory syndrome-related coronavirus, Huh-7
[2] = target: CYP1A2 (Homo sapiens, UniProt P05177)
Chain of CYP1A2 (P05177 whole entry): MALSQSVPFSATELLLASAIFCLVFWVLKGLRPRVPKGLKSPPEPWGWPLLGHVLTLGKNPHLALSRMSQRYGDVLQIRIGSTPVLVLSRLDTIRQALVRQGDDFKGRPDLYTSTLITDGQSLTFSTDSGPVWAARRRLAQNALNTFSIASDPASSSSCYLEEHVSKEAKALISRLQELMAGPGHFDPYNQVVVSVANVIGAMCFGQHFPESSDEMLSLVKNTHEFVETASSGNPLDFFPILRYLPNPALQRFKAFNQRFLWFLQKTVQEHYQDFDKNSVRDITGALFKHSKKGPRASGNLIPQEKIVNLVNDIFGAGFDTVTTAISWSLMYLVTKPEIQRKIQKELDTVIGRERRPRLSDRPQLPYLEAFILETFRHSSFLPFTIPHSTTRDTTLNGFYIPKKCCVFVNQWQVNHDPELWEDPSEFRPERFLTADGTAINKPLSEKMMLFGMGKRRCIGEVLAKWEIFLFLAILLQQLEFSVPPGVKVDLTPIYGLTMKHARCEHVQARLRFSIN

[3] = target: CYP2C9 (Homo sapiens, UniProt P11712)
Chain of CYP2C9 (P11712 whole entry): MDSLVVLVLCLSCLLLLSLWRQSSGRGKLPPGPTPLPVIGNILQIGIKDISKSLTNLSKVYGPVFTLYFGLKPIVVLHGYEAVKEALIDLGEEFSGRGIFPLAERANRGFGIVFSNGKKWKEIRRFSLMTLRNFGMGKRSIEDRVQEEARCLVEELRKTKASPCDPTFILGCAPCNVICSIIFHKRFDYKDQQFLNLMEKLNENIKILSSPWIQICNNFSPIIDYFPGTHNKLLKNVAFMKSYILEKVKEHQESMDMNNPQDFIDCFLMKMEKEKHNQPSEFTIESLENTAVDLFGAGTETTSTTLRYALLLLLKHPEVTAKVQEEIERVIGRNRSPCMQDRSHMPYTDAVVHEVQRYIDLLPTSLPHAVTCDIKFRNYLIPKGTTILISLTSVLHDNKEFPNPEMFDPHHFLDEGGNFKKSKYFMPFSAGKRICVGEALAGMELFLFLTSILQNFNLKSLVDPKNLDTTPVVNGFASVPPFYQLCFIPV

[4] = in vivo; conditions: female, Sprague Dawley, rat
[5] = test system: MERS-CoV pseudovirus; test: microbe, parasite or virus in culture; format: cell-based; conditions: Middle East respiratory syndrome-related coronavirus, MRC5
[6] = target: T1, CYP2D6 (Homo sapiens, UniProt P10635)
T1 sequence (P10635 whole entry): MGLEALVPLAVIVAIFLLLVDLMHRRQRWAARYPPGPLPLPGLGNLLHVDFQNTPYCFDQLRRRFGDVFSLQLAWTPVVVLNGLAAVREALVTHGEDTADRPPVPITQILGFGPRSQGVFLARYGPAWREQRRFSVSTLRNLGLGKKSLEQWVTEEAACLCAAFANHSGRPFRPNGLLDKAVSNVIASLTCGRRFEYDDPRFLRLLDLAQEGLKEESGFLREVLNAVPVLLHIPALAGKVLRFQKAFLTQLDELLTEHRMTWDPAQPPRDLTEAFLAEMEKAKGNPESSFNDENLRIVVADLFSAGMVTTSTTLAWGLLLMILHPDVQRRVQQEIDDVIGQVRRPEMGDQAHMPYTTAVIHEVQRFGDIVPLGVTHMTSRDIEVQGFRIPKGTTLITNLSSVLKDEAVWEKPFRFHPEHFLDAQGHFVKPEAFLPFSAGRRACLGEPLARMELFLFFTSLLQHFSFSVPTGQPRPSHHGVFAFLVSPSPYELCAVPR

[7] = rat, in vivo
[8] = test system: SARS-CoV-2 full Spike wild-type (Wuhan-Hu-1) mediated cell-to-cell fusion; test: cells; format: cell-based
[9] = test system: SARS-CoV pseudovirus; test: microbe, parasite or virus in culture; format: cell-based; conditions: Severe acute respiratory syndrome coronavirus, A549-ACE2
[10] = target: CYP2B6 (Homo sapiens, UniProt P20813)
Chain of CYP2B6 (P20813 whole entry): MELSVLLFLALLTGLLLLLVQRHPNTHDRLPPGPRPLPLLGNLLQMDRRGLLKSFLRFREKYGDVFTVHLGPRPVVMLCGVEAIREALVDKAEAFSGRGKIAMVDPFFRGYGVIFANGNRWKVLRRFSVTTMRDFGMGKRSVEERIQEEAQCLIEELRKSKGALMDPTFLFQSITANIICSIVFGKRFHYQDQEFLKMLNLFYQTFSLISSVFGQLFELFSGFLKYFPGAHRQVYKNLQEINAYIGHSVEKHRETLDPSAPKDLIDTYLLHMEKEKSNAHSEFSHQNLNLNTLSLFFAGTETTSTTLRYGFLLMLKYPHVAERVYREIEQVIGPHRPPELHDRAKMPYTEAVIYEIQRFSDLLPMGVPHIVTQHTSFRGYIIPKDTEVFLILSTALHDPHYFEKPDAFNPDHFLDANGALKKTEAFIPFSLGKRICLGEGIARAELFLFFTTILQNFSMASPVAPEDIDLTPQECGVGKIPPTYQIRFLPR

[11] = target: CYP2C19 (Homo sapiens, UniProt P33261)
Chain of CYP2C19 (P33261 whole entry): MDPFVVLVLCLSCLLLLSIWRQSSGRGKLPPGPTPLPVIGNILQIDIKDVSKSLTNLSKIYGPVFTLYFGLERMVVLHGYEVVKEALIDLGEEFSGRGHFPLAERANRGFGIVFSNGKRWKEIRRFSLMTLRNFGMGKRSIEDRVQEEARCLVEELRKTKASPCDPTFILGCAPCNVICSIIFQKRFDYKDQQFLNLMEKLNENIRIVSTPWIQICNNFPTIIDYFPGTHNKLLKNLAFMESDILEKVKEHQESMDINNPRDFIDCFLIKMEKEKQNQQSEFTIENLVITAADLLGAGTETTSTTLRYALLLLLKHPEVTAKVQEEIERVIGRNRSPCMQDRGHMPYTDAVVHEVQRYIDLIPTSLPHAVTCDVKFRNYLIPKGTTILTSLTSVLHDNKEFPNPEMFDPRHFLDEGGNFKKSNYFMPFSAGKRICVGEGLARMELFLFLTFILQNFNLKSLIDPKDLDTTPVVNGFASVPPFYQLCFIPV

[12] = target: CYP3A (Homo sapiens, UniProt P08684)
Chain of CYP3A (P08684 2-503): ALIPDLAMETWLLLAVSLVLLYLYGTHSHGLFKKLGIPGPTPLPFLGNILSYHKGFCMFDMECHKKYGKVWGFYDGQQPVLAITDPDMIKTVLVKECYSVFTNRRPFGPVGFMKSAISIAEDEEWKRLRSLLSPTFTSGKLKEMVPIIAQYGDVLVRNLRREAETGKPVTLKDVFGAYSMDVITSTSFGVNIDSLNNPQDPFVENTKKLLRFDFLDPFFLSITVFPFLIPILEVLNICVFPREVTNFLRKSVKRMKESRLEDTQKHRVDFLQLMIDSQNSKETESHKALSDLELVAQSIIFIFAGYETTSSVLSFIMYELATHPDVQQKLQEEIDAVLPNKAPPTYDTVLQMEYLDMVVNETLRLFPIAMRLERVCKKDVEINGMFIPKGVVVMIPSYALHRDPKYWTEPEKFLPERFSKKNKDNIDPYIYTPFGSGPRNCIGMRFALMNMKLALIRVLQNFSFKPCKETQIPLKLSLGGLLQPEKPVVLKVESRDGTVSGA

[13] = target: CYP2C8 (Homo sapiens, UniProt P10632)
Chain of CYP2C8 (P10632 whole entry): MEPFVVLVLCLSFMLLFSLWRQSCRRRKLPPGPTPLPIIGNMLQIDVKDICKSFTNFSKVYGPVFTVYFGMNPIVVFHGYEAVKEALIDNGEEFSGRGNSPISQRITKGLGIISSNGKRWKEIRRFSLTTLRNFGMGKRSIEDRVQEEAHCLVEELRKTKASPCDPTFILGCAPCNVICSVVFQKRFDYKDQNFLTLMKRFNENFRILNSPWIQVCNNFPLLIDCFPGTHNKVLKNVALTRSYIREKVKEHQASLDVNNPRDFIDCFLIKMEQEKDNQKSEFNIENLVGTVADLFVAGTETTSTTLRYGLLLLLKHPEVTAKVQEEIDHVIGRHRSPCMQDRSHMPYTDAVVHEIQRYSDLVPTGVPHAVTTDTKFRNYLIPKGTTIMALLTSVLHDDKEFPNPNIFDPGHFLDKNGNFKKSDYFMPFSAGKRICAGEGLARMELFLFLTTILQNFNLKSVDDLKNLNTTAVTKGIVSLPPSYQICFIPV

[14] = pH 7.4
[15] = test system: SARS-CoV pseudovirus; test: microbe, parasite or virus in culture; format: cell-based; conditions: Severe acute respiratory syndrome coronavirus, 293T/ACE2
[16] = test system: SARS-CoV-2 pseudovirus; test: microbe, parasite or virus in culture; format: cell-based
[17] = test system: SARS-CoV-2 (US_WA-1/2020); format: cell-based
[18] = target: SARS-CoV-2 spike (active trimer) His-tag (Severe acute respiratory syndrome coronavirus 2, UniProt P0DTC2); format: binding
[19] = target: T1, CYP2D6; test: biochemical
[20] = human, microsomes
[21] = in vitro; conditions: human
[22] = female, Sprague Dawley, iv, 5 mg/kg

With `O=C(O)c1cc(-c2ccc(/C=C3\SC(=S)N(CCc4ccccc4)C3=O)o2)ccc1Cl` [Compound 1, (Z)-2-Chloro-5-(5-((4-oxo-3-phenethyl-2-thioxothiazolidin-5-ylidene)methyl)furan-2-yl)benzoic acid] the IC50 [1] was 95 to 158 nM, the CYP inhibition class [2] was “moderate (key: IC50 >10 μM (CYP inhibition low); <10 μM (CYP inhibition moderate); <3 μM (CYP inhibition high))” and the “% of Control Enzyme Activity (n = 1)” value ([2]; 0.0137 μM) was 99.2%. The “% of Control Enzyme Activity (n = 1)” value ([2]; 0.0412 μM) was 96.7%, the “% of Control Enzyme Activity (n = 1)” value ([2]; 0.123 μM) was 93.8% and the “% of Control Enzyme Activity (n = 1)” value ([2]; 0.370 μM) was 92.2%. The “% of Control Enzyme Activity (n = 1)” value ([2]; 1.11 μM) was 89.8%, the “% of Control Enzyme Activity (n = 1)” value ([2]; 3.33 μM) was 69.5% and the “% of Control Enzyme Activity (n = 1)” value ([2]; 10 μM) was 41.3%. For the same molecule, the IC50 ([2]; human, microsomes, pH 7.4) was 7400 nM, the CYP inhibition class [3] was “moderate (key: IC50 >10 μM (CYP inhibition low); <10 μM (CYP inhibition moderate); <3 μM (CYP inhibition high))” and the “% of Control Enzyme Activity (n = 1)” value ([3]; 0.0137 μM) was 99.4%. For the same molecule, the “% of Control Enzyme Activity (n = 1)” value ([3]; 0.0412 μM) was 98.2%, the “% of Control Enzyme Activity (n = 1)” value ([3]; 0.123 μM) was 97.2% and the “% of Control Enzyme Activity (n = 1)” value ([3]; 0.370 μM) was 95.1%. The “% of Control Enzyme Activity (n = 1)” value ([3]; 1.11 μM) was 85.1%, the “% of Control Enzyme Activity (n = 1)” value ([3]; 3.33 μM) was 59.9% and the “% of Control Enzyme Activity (n = 1)” value ([3]; 10 μM) was 29.8%. For the same molecule, the IC50 ([3]; human, microsomes, pH 7.4) was 5010 nM, the AUC(0-t) ([4]; iv, 5 mg/kg) was 37500 ng·h/mL and the AUC(0-t) ([4]; po, 10 mg/kg) was 12000 ng·h/mL. The IC50 [5] was 76.5 to 123 nM, the CYP inhibition class [6] was “low (key: IC50 >10 μM (CYP inhibition low); <10 μM (CYP inhibition moderate); <3 μM (CYP inhibition high))” and the “% of Control Enzyme Activity (n = 1)” value ([6]; 0.0137 μM) was 95.8%. For the same molecule, the “% of Control Enzyme Activity (n = 1)” value ([6]; 0.0412 μM) was 98.7%, the “% of Control Enzyme Activity (n = 1)” value ([6]; 0.123 μM) was 98.6% and the “% of Control Enzyme Activity (n = 1)” value ([6]; 0.370 μM) was 101%. The “% of Control Enzyme Activity (n = 1)” value ([6]; 1.11 μM) was 97.0%, the “% of Control Enzyme Activity (n = 1)” value ([6]; 3.33 μM) was 84.3% and the “% of Control Enzyme Activity (n = 1)” value ([6]; 10 μM) was 59.2%. The C0 [7, 22] was 7407.25 ng/mL, the CLobs [7, 22] was 0.00013 mg/kg/(ng/mL)/hr and the MRT0-inf_obs [7, 22] was 4.02 h. The Vss_obs [7, 22] was 0.00053 mg/kg/(ng/mL), the F % ([7]; female, Sprague-Dawley) was 20.1% and the MRT0-inf_obs ([7]; female, Sprague-Dawley, po, 10 mg/kg) was 14.34 h. For the same molecule, the Vz/F_obs ([7]; po, 10 mg/kg) was 0.01078 mg/kg/(ng/mL), the “inhibition of SARS-CoV-2 mediated cell-to-cell fusion (in words)” value [8] was “potently inhibited the cell-to-cell fusion even at the lowest dose” and the inhibition at 0.25 µM ([8]; Severe acute respiratory syndrome coronavirus 2, Jurkat, at 250 nM, read-out: inhibitory activity of SARS-CoV-2 mediated cell-to-cell fusion) was 62 to 79%. For the same molecule, the melting point was 348 to 350 °C, the IC50 [9] was 98 to 157 nM and the CYP inhibition class [10] was “moderate (key: IC50 >10 μM (CYP inhibition low); <10 μM (CYP inhibition moderate); <3 μM (CYP inhibition high))”. The “% of Control Enzyme Activity (n = 1)” value ([10]; 0.0137 μM) was 97.5%, the “% of Control Enzyme Activity (n = 1)” value ([10]; 0.0412 μM) was 98.1% and the “% of Control Enzyme Activity (n = 1)” value ([10]; 0.123 μM) was 90.4%. For the same molecule, the “% of Control Enzyme Activity (n = 1)” value ([10]; 0.370 μM) was 94.2%, the “% of Control Enzyme Activity (n = 1)” value ([10]; 1.11 μM) was 76.9% and the “% of Control Enzyme Activity (n = 1)” value ([10]; 3.33 μM) was 47.0%. The “% of Control Enzyme Activity (n = 1)” value ([10]; 10 μM) was 15.2%, the IC50 ([10]; human, microsomes, pH 7.4) was 3190 nM and the CYP inhibition class [11] was “moderate (key: IC50 >10 μM (CYP inhibition low); <10 μM (CYP inhibition moderate); <3 μM (CYP inhibition high))”. The “% of Control Enzyme Activity (n = 1)” value ([11]; 0.0137 μM) was 103%, the “% of Control Enzyme Activity (n = 1)” value ([11]; 0.0412 μM) was 110% and the “% of Control Enzyme Activity (n = 1)” value ([11]; 0.123 μM) was 101%. The “% of Control Enzyme Activity (n = 1)” value ([11]; 0.370 μM) was 102%, the “% of Control Enzyme Activity (n = 1)” value ([11]; 1.11 μM) was 92.0% and the “% of Control Enzyme Activity (n = 1)” value ([11]; 3.33 μM) was 70.8%. For the same molecule, the “% of Control Enzyme Activity (n = 1)” value ([11]; 10 μM) was 40.7%, the IC50 ([11]; human, microsomes, pH 7.4) was 7310 nM and the CYP inhibition class [12] was “low (key: IC50 >10 μM (CYP inhibition low); <10 μM (CYP inhibition moderate); <3 μM (CYP inhibition high))”. For the same molecule, the “% of Control Enzyme Activity (n = 1)” value ([12]; 0.0137 μM) was 96.7% and 96.6%, the “% of Control Enzyme Activity (n = 1)” value ([12]; 0.0412 μM) was 97.0% and the “% of Control Enzyme Activity (n = 1)” value ([12]; 0.123 μM) was 94.5% and 94.8%. The “% of Control Enzyme Activity (n = 1)” value ([12]; 0.370 μM, 0.37 µM) was 95.1% and 96.3%, the “% of Control Enzyme Activity (n = 1)” value ([12]; 1.11 μM) was 95.9% and 94.6% and the “% of Control Enzyme Activity (n = 1)” value ([12]; 3.33 μM) was 88.2% and 82.2%. For the same molecule, the “% of Control Enzyme Activity (n = 1)” value ([12]; 10 μM) was 61.6% and 59.9%, the CYP inhibition class [13] was “high (key: IC50 >10 μM (CYP inhibition low); <10 μM (CYP inhibition moderate); <3 μM (CYP inhibition high))” and the “% of Control Enzyme Activity (n = 1)” value ([13]; 0.0137 μM) was 102%. For the same molecule, the “% of Control Enzyme Activity (n = 1)” value ([13]; 0.0412 μM) was 89.0%, the “% of Control Enzyme Activity (n = 1)” value ([13]; 0.123 μM) was 98.3% and the “% of Control Enzyme Activity (n = 1)” value ([13]; 1.11 μM) was 76.9%. The “% of Control Enzyme Activity (n = 1)” value ([13]; 3.33 μM) was 25.3%, the “% of Control Enzyme Activity (n = 1)” value ([13]; 10 μM) was 3.87% and the IC50 ([13]; human, microsomes, pH 7.4) was 2080 nM. The “Solubility in Phosphate Buffer, Average” value [14] was 4.72 µM (≈ 2.22 µg/mL), the “Solubility in Phosphate Buffer, R1” value [14] was 4.35 µM (≈ 2.04 µg/mL) and the IC50 [15] was 13.8 to 17 nM. For the same molecule, the “antiviral activity against SARS-CoV-2 pseudovirus (in words)” value [16] was “low nanomolar activity; also recorded: excellent antiviral activity; also recorded: low nM IC50”, the IC50 ([16]; Severe acute respiratory syndrome-related coronavirus, read-out: IC50s against SARS-CoV-2 pseudovirus over the cell lines) was 32.3 to 63.4 nM and the IC100 [17] was 1.25 µM. The ka [18] was 1040 M⁻¹ s⁻¹, the IC50 [19] was greater than 10000 nM and the “clearance (in words)” value [20] was “low-clearance compound”. It also gave a CC50 [21] of 37500 ± 1000 nM.

From patent publication US20220348569A1 (priority 2021, published 2022)
